Assay: molar heat capacity at constant pressure; xn = mol fraction of the nth substance listed
Details: 101 kPa, Glass, Small sample (50 mg) DSC

NCCCO [3-amino-1-propanol] + O
Details | molar heat capacity at constant pressure [J/K/mol]
125.42 K, x1 = 0.19 | 28.29
125.42 K, x1 = 0.26 | 32.2
126.01 K, x1 = 0.68 | 47.75
126.94 K, x1 = 0.19 | 29.15
127.1 K, x1 = 0.26 | 32.2
127.56 K, x1 = 0.16 | 28.24
127.59 K, x1 = 0.16 | 29.05
128.06 K, x1 = 0.68 | 51.16
129.29 K, x1 = 0.19 | 30.02
130.07 K, x1 = 0.26 | 33.19
130.83 K, x1 = 0.16 | 29.05
130.83 K, x1 = 0.68 | 52.29
131.76 K, x1 = 0.19 | 30.6
131.92 K, x1 = 0.26 | 33.19
132.24 K, x1 = 0.16 | 30.41
132.71 K, x1 = 0.68 | 52.86
133.95 K, x1 = 0.19 | 31.46
134.1 K, x1 = 0.16 | 30.14
134.11 K, x1 = 0.68 | 54
134.74 K, x1 = 0.26 | 34.17
135.04 K, x1 = 0.19 | 31.46
135.2 K, x1 = 0.26 | 33.85
136.92 K, x1 = 0.16 | 32.04
137.39 K, x1 = 0.68 | 54.57
138.63 K, x1 = 0.19 | 33.19
139.41 K, x1 = 0.26 | 35.49
140.66 K, x1 = 0.16 | 31.77
140.66 K, x1 = 0.68 | 56.27
141.59 K, x1 = 0.16 | 33.94
141.6 K, x1 = 0.19 | 33.48
141.75 K, x1 = 0.26 | 35.82
142.07 K, x1 = 0.68 | 56.27
143.47 K, x1 = 0.19 | 34.92
143.95 K, x1 = 0.16 | 32.58
143.95 K, x1 = 0.68 | 57.98
144.1 K, x1 = 0.26 | 36.47
144.88 K, x1 = 0.19 | 34.64
145.04 K, x1 = 0.26 | 36.8
146.28 K, x1 = 0.16 | 36.65
146.75 K, x1 = 0.68 | 56.84
148.16 K, x1 = 0.19 | 37.23
148.79 K, x1 = 0.26 | 39.1
150.53 K, x1 = 0.16 | 34.75
150.53 K, x1 = 0.68 | 60.25
150.98 K, x1 = 0.16 | 40.73
151.45 K, x1 = 0.68 | 57.98
151.46 K, x1 = 0.19 | 36.94
151.62 K, x1 = 0.26 | 39.1
152.86 K, x1 = 0.19 | 40.99
153.81 K, x1 = 0.16 | 36.65
153.82 K, x1 = 0.68 | 61.96
154.75 K, x1 = 0.19 | 38.39
154.91 K, x1 = 0.26 | 40.42
156.15 K, x1 = 0.68 | 60.25
160.4 K, x1 = 0.68 | 65.37
161.49 K, x1 = 0.26 | 45.02
163.69 K, x1 = 0.68 | 67.64

— the NIST ThermoML archive (doi:10.1016/j.tca.2015.02.020)
